In BindingDB's records for doi:10.1158/0008-5472.can-03-3344 (St. Jude Children'S Research Hospital, 2004):

Assay: TP_TRANSPORTER: drug resistance(Imatinib mesylate) in BCRP-expressing SaoS2 cells

IC50: 176 nM
SMILES: CCc1c2c(nc3ccc(O)cc13)-c1cc3c(c(=O)n1C2)COC(=O)[C@]3(O)CC [7-ETHYL-10-HYDROXY-CAMPTOTHECIN]
